{
  "source": "BindingDB's records for doi:10.1124/jpet.104.065391",
  "about": "(University of Arizona, 2004)",
  "key": {"[1]": {"biological_target": "Kappa-type opioid receptor (Homo sapiens, UniProt P41145)", "sequence (P41145 whole entry)": "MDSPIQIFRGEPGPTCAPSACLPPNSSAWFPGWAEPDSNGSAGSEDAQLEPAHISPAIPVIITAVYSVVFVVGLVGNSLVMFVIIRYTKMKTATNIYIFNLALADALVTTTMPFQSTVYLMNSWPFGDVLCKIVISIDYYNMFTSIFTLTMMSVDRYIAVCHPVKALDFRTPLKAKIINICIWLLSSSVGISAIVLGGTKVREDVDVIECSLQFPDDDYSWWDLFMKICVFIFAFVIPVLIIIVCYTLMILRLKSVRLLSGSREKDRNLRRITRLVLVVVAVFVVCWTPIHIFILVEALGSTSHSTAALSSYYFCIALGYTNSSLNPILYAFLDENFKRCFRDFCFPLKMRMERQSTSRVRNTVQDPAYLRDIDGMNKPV"}, "[2]": {"biological_target": "Mu-type opioid receptor (Homo sapiens, UniProt P35372)", "sequence (P35372 whole entry)": "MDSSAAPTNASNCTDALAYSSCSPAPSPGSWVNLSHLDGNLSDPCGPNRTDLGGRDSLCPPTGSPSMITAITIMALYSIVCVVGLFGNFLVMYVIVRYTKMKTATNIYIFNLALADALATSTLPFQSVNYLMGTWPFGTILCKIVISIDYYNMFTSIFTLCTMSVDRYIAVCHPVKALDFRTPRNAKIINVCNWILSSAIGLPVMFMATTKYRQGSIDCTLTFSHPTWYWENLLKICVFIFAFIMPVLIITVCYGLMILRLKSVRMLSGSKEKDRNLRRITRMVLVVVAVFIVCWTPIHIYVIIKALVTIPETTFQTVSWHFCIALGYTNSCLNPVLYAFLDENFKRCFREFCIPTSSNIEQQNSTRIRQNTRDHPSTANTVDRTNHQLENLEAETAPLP"}},
  "note": "Where a SMILES comes first, the peptide text is derived from it. [ ]: non-standard residue; d: D form. dNle = CCCC[C@@H](N)C(=O)O",
  "data": [
    {"molecule": "CCCC[C@@H](NC(=O)[C@@H](Cc1ccccc1)NC(=O)[C@H](N)Cc1ccccc1)C(=O)N[C@H](CCCNC(=N)N)C(N)=O", "note": "[d-Phe-d-Phe-d-Nle-d-Arg-NH2] (H-[dF][dF][dNle][dR]-NH2)", "values": [
      {"measurement": "Ki", "setting": "[1]", "result": 0.146, "unit": "nM"},
      {"measurement": "Ki", "setting": "[2]", "result": 4570, "unit": "nM"}
    ]}
  ]
}
